Tests used:
[1] = Single-dose plasma pharmacokinetics of raltitrexed in cancer patients (radioimmunoassay, three-compartment model); assay type: in vivo, human
Experimental: British Journal of Cancer (1 998) 78(9). 1188-1193 C 1998 Cancer Research Campaign Effects of impaired renal function on the pharmacokinetics of raltitrexed (Tomudex ZDI 694) I Judson', T Maughan2, P Beale', J Primrose3, P Hoskin4, J HanweIll, C Berry1, M Walker5 and F Sutcliffe5 lInstitute of Cancer Research. Sutton, Surrey SM2 5NG, UK; Welindre Hospital, Whitchurch. Cardiff CF4, UK; 3Souftampton General Hospital, Southampton S09 4XY. UK: 'Mount Vernon Hospital, Middlesex HA6 2RN. UK; 5Zeneca Pharmaceutcals Macclesfield. Cheshire SK10 4TG. UK Summary This open-label, non-randomized, parallel-group trial investigated the pharmacokinetics of raltitrexed (Tomudex, formerly ZD1 694) after a single intravenous dose of 3.0 mg m-2, comparing eight cancer patients with mild to moderate renal impairment (creatinine clearance 25-65 ml min-') with eight cancer patients with normal renal function (creatinine clearance >65 ml min-'). The primary end points were area under the plasma raltitrexed concentration-vime curve from the start of the infusion to the last determined concentration (AUCo_) and AUC to infinity (AUCo); secondary end points were peak corncentrations of ralftitrexed (C,n,) and elimination half-life (t,>). The groups were compared statistically using analysis of covariance. The AUCs were greater for patients with renal impairment than for patients with normal renal function (2452.2 compared with 1247.3 ng h ml-' for AUCo._. (ratio 1.97; 95% Cl 1.36-2.84); 2961.5 compared with 1457.0 ng h ml-' for AUCo_ (ratio 2.03; 1.25-3.29). These differences were statistically significant (P = 0.002 and P = 0.008 for AUC, and AUCo_ respectively. Terminal half-life was longer for the renally impaired patients (271.2 compared with 143.3; P = 0.030). There was no significant statistical difference between the groups for C, (652.9 compared with 564.7 ng ml-' for patients with impaired and normal renal function respectively: ratio 1.16; 0.91-1.46; P=0.204). There was a clear relationship between raltfitrexed clearance and creatinine clearance. Adverse events, severe (WHO grade 3 or 4) toxicity and hospitalization due to adverse events were more frequent in the group with renal impairment. Therefore, a reduction in ralftitrexed dose and increased interval between doses is recommended for patients with mild to moderate renal impairment. Keywords: pharmacokinetics; thymidylate synthase; phase I trial; raltitrexed; renal impairment Raltitrexed (Tomudex. ZD1694: Zeneca Limited) is a cytotoxic agent w-hich acts by direct and specific inhibition of thymidydlate synthase. the enzyme catalysing a critical step in de novo DNA synthesis. i.e. the production of thymidine monophosphate from deoxvuridine monophosphate. Some clinically effective anti- cancer agents. such as 5-fluorouracil and methotrexate. act in part by inhibiting thymidylate synthase but also have effects on other enzyme pathways. xvhich may contribute to their anti-tumour activity and obserned toxicity profiles. Raltitrexed inhibits thymidylate synthase selectively in vitro (Jackman et al. 1991). […] The poly- glutamates are retained in cells and cause prolonged inhibition of th midv late synthase. which leads to DNA fragmentation and cell death. […] The mean apparent half-life of the terminal (gamma) phase (tl, ,) was 50-lOO h (Clarke et al. 1996). This prolonged t1, may represent hydrolysis of the polvalutamated Received 17 November 1997 Revised 4 Apnl 1998 Accepted 14 Apnl 1998 Correspondence to: IR Judson, CRC Centre for Cancer Therapeutics. The Institute of Cancer Research. Block E. 15 Cotswold Road. Belmont. Sutton. Surrey SM2 5NG. UK forms and release of raltitrexed from tissues into the circulation. and allow s the druc to be administered as a single dose once ev er 3 weeks. In the phase I trial. a dose and schedule of 3.0mg m-' every 3 weeks was identified as suitable for phase H inxvestigation. […]

[2] = Safety: adverse events and WHO-graded toxicity in cancer patients; assay type: in vivo
Experimental: British Journal of Cancer (1 998) 78(9). 1188-1193 C 1998 Cancer Research Campaign Effects of impaired renal function on the pharmacokinetics of raltitrexed (Tomudex ZDI 694) I Judson', T Maughan2, P Beale', J Primrose3, P Hoskin4, J HanweIll, C Berry1, M Walker5 and F Sutcliffe5 lInstitute of Cancer Research. Sutton, Surrey SM2 5NG, UK; Welindre Hospital, Whitchurch. Cardiff CF4, UK; 3Souftampton General Hospital, Southampton S09 4XY. UK: 'Mount Vernon Hospital, Middlesex HA6 2RN. UK; 5Zeneca Pharmaceutcals Macclesfield. Cheshire SK10 4TG. UK Summary This open-label, non-randomized, parallel-group trial investigated the pharmacokinetics of raltitrexed (Tomudex, formerly ZD1 694) after a single intravenous dose of 3.0 mg m-2, comparing eight cancer patients with mild to moderate renal impairment (creatinine clearance 25-65 ml min-') with eight cancer patients with normal renal function (creatinine clearance >65 ml min-'). The primary end points were area under the plasma raltitrexed concentration-vime curve from the start of the infusion to the last determined concentration (AUCo_) and AUC to infinity (AUCo); secondary end points were peak corncentrations of ralftitrexed (C,n,) and elimination half-life (t,>). The groups were compared statistically using analysis of covariance. The AUCs were greater for patients with renal impairment than for patients with normal renal function (2452.2 compared with 1247.3 ng h ml-' for AUCo._. (ratio 1.97; 95% Cl 1.36-2.84); 2961.5 compared with 1457.0 ng h ml-' for AUCo_ (ratio 2.03; 1.25-3.29). These differences were statistically significant (P = 0.002 and P = 0.008 for AUC, and AUCo_ respectively. Terminal half-life was longer for the renally impaired patients (271.2 compared with 143.3; P = 0.030). There was no significant statistical difference between the groups for C, (652.9 compared with 564.7 ng ml-' for patients with impaired and normal renal function respectively: ratio 1.16; 0.91-1.46; P=0.204). There was a clear relationship between raltfitrexed clearance and creatinine clearance. Adverse events, severe (WHO grade 3 or 4) toxicity and hospitalization due to adverse events were more frequent in the group with renal impairment. Therefore, a reduction in ralftitrexed dose and increased interval between doses is recommended for patients with mild to moderate renal impairment. Keywords: pharmacokinetics; thymidylate synthase; phase I trial; raltitrexed; renal impairment Raltitrexed (Tomudex. ZD1694: Zeneca Limited) is a cytotoxic agent w-hich acts by direct and specific inhibition of thymidydlate synthase. the enzyme catalysing a critical step in de novo DNA synthesis. i.e. the production of thymidine monophosphate from deoxvuridine monophosphate. […]

Cc1nc2ccc(CN(C)c3ccc(C(=O)N[C@@H](CCC(=O)O)C(=O)O)s3)cc2c(=O)[nH]1 [raltitrexed]
Cmax estimated ratio (impaired:normal renal function) ([1]; 95% CI 0.91-1.46, P = 0.204): 1.16 | AUC0-infinity estimated ratio (impaired:normal renal function) ([1]; 95% CI 1.25-3.29, P = 0.008): 2.03 | AUC0-tldc estimated ratio (impaired:normal renal function) ([1]; 95% CI 1.36-2.84, P = 0.002): 1.97 | AUC ([1]; both sexes, human, in vivo, AUC0-tldc, adjusted geometric least squares mean): 2450 ng·h/mL | Cmax ([1]; both sexes, human, in vivo, Cmax, adjusted geometric least squares mean): 565 ng/mL | Cmax ([1]; both sexes, human, in vivo, iv, 3 mg, Cmax (mean; SD)): 676 ng/mL | Tmax ([1]; both sexes, human, in vivo, iv, tmax (median and range)): 0.267 h | half-life ([1]; both sexes, human, in vivo, t1/2 gamma (terminal half-life), adjusted least squares mean): 271 h | Cmax, adjusted geometric least squares mean ([1]; both, human, in vivo): 652.9 ng/mL | t1/2 gamma (terminal half-life), adjusted least squares mean ([1]; both, human, in vivo): 143.3 h | tmax (median and range) ([1]; both, human, in vivo, iv): 20 (10-30) min | Cmax (mean; SD) ([1]; human, in vivo, iv, 3 mg): 567.1 ? 62.7 ng ml-1 | Pain, number of patients ([2]; both, human, in vivo): 3 patients | WHO grade 3 or 4 drug-related toxicity ([2]; both, human, in vivo): No WHO grade 3 or 4 drug-related toxicity was reported | WHO grade 3 or 4 toxicity ([2]; both, human, in vivo): grade 3 or 4 toxicity was observed | Serious adverse events ([2]; renally impaired patient: Cr-EDTA clearance 28, calculated creatinine clearance 23.2 ml min-1): Death
